Measured values from patent publication US20250129021A1, “SMALL MOLECULE PROTEIN SYNTHESIS MODULATORS” (Interdict Bio, Inc., priority 2023, published 2025).
pIC50: −log10 of the molar value.

Assays:
Assay type in all cases: biochemical
MYC = experiment: In vitro transcription-translation (IVTT) assay, MYC reporter; conditions: IVTT assay, HeLa S3 lysate, MYC reporter, normalized sfGFP/mCherry ratio; half-log dilutions 30 μM-0.1 μM, 2 hrs at 30° C.
How it was run: (§1)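 Reporter: mCherry, P2A, then 3×FLAG-target peptide-sfGFP fusion, IRES-initiated; HeLa S3 lysate IVTT; cpd dilutions 30 μM−0.1 μM half-log in 100% DMSO (dilution-plate conc); DNA added last; 2 h, 30° C; PBS quench.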

CCND1 = experiment: In vitro transcription-translation (IVTT) assay, CCND1 reporter; conditions: IVTT assay, HeLa S3 lysate, sfGFP/mCherry ratio
How it was run: as §1

MCL-1 = experiment: In vitro transcription-translation (IVTT) assay, MCL-1 reporter; conditions: IVTT assay, HeLa S3 lysate, sfGFP/mCherry ratio; read-out: MCL1 IC50
How it was run: as §1

CCNTB1 = experiment: In vitro transcription-translation (IVTT) assay, CCNTB1 reporter; conditions: HeLa S3 lysate, sfGFP/mCherry ratio
Protocol: In vitro transcription-translation assay setup: Each assay includes a master mix containing lysate and shared components, a 96-well plate containing compound titrations for testing, a 96-well DNA plate with reporter constructs to be tested, 96-well skirted PCR plates, and 96-well flat-bottom, black, fluorescent assay plates. Reaction materials setup: (A) Master mix—15 mL conical tube (3 mL of HeLa S3 Lysate described above; 0.6 mL of ThermoFisher Accessory Proteins (#88882); 1.2 ml of ThermoFisher Reaction Mix (#88882); 0.54 mL of nuclease-free Water); (B) 96-Well Master Mix+Compound Plate (Half-log dilutions (30 μM−0.1 μM) of 4 compounds of interest are prepared in 100% DMSO); 96-Well DNA Plate (Five DNA constructs are plated into single columns within the plate. Row 1 of the column contains nuclease free H2O, all other wells contain 110 ng/μL plasmid DNA). Reactions are started by mixing 155 μL of master mix and 3.5 μL of compound serial dilutions, then 9.1 μL of master mix+compound mixture is aliquoted across 5 96-well plates. Reactions begin with final addition of 2 μL of DNA for a 11.1 μL reaction volume in each well. The entire plate is sealed, and incubated for 2 hrs at 30° C. After 2 hrs, quench the assay using 45 μL of PBS, and transfer 50 μL to a flat-bottom black microplate Quantify the sfGFP and mCherry signals from each well on each plate, taking 3 reads of each plate, and perform data analysis below.
In vitro transcription-translation assay data analysis: Each plate is read three times in channels for both sfGFP and mCherry signals. The average signal across these 3 reads is then calculated for further analysis. Control wells containing no DNA reporter are subtracted from reporter wells in the same column to remove auto-fluorescence of the lysate. Then, the ratio of sfGFP/mCherry is calculated per well, and these ratios are averaged across the triplicate experiments on the same plate. Finally, the ratio of each titration concentration is normalized to the no drug control to create the normalized stalling metric. The error on this measurement is determined by propagating error through the averaging and normalization steps. Values are plotted and fit for IC50 determination for each test sequence and titration of compound.

SMILES | pIC50 (MYC) | pIC50 (CCND1) | pIC50 (MCL-1) | pIC50 (CCNTB1)
COc1ccc(C[C@H]2NC[C@H](O)[C@H]2OC(=O)NCc2cc(F)c(O)c(F)c2)cc1 [V191939, (2R,3S,4S)-4-hydroxy-2-[(4-methoxyphenyl)methyl]pyrrolidin-3-yl N-[(3,5-difluoro-4-hydroxyphenyl)methyl]carbamate] | 4.70 to 5.00 | 4.70 to 5.00 | > 5.00 | > 5.00
O=C(NCc1ccccc1)O[C@@H]1[C@@H](O)CN[C@@H]1Cn1cccn1 [V188209, (2R,3S,4S)-4-hydroxy-2-(pyrazol-1-ylmethyl)pyrrolidin-3-yl N-benzylcarbamate] | < 4.52 | < 4.52 | < 4.52 | < 4.52
O=C(NCCC1CCNCC1)O[C@@H]1[C@@H](O)CN[C@@H]1Cc1ccc(-c2ccccc2)cc1 [V192050, (2R,3S,4S)-2-{[1,1′-biphenyl]-4-ylmethyl}-4-hydroxypyrrolidin-3-yl N-[2-(piperidin-4-yl)ethyl]carbamate] | 4.70 to 5.00 | < 4.52 | 4.70 to 5.00 | 4.70 to 5.00
COc1ccc(C[C@H]2NC[C@H](O)[C@H]2OC(=O)NCC[C@]2(C)CCCN2)cc1 [V191921, (2R,3S,4S)-4-hydroxy-2-[(4-methoxyphenyl)methyl]pyrrolidin-3-yl N-{2-[(2S)-2-methylpyrrolidin-2-yl]ethyl}carbamate] | > 5.00 | 4.70 to 5.00 | > 5.00 | > 5.00
O=C(NCCC1CCNCC1)O[C@@H]1[C@@H](O)CN[C@@H]1Cc1ccc(-c2ccc3c(c2)CC(F)(F)C3)cc1 [V192053, (2R,3S,4S)-2-{[4-(2,2-difluoro-1,3-dihydroinden-5-yl)phenyl]methyl}-4-hydroxypyrrolidin-3-yl N-[2-(piperidin-4-yl)ethyl]carbamate] | < 4.52 | < 4.52 | 4.52 to 4.70 | 4.70 to 5.00
COc1ccc(C[C@H]2NC[C@H](O)[C@H]2OC(=O)NCC[C@H]2CCC3(CC3)N2)cc1 [V192043, (2R,3S,4S)-4-hydroxy-2-[(4-methoxyphenyl)methyl]pyrrolidin-3-yl N-{2-[(5R)-4-azaspiro[2.4]heptan-5-yl]ethyl}carbamate] | < 4.52 | < 4.52 | < 4.52 | < 4.52
COc1ccc(C[C@H]2NC[C@H](O)[C@H]2OC(=O)N[C@@H](C)c2ccccc2)cc1 [V191971, (2R,3S,4S)-4-hydroxy-2-[(4-methoxyphenyl)methyl]pyrrolidin-3-yl N-[(1S)-1-phenylethyl]carbamate] | 4.70 to 5.00 | < 4.52 | 4.52 to 4.70 | 4.70 to 5.00
O=C(NCC[C@H]1CCCN1)O[C@@H]1[C@@H](O)CN[C@@H]1Cc1ccc(-c2cnco2)cc1 [V192048, (2R,3S,4S)-4-hydroxy-2-{[4-(1,3-oxazol-5-yl)phenyl]methyl}pyrrolidin-3-yl N-{2-[(2R)-pyrrolidin-2-yl]ethyl}carbamate] | > 5.00 | > 5.00 | > 5.00 | > 5.00
COc1ccc(C[C@H]2NC[C@H](O)[C@H]2OC(=O)NCC[C@@H]2CCCNC2)cc1 [V191903, (2R,3S,4S)-4-hydroxy-2-[(4-methoxyphenyl)methyl]pyrrolidin-3-yl N-{2-[(3S)-piperidin-3-yl]ethyl}carbamate] | > 5.00 | 4.70 to 5.00 | > 5.00 | > 5.00
O=C(NCC[C@H]1CCCN1)O[C@@H]1[C@@H](O)CN[C@@H]1Cc1ccc(-c2ccc3c(c2)CC(F)(F)C3)cc1 [V192040, (2R,3S,4S)-2-{[4-(2,2-difluoro-1,3-dihydroinden-5-yl)phenyl]methyl}-4-hydroxypyrrolidin-3-yl N-{2-[(2R)-pyrrolidin-2-yl]ethyl}carbamate] | 4.70 to 5.00 | 4.52 to 4.70 | 4.70 to 5.00 | > 5.00
